This is an account of results in US20260250318A1, “COMPOSITIONS AND METHODS FOR CROSSING THE BLOOD BRAIN BARRIER” (VOYAGER THERAPEUTICS, INC., priority 2022, published 2026).

The subject of the first assay is brains, heart, liver, muscle, and DRG of the NHPs. The assay can be described thus: Maturation of TTM-001 and TTM-002 capsids, NGS enrichment in NHP tissues. To be noted: NGS fold-enrichment of matured AAV capsid variants; NHP brain, RNA; relative to AAV9 control. It counts as in vivo. The gist of the method: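 Variants carry mutations within and flanking the loop IV peptide insert: positions 450–466 were triplet-randomized, while positions 449–466 received low-frequency point mutations. The combined pool went into two NHPs, and each peptide was scored by NGS enrichment ratio against AAV9.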
Consider KTINGSGSPHSKAQSKVT, for which the “Fold Enrichment relative to AAV9, Brain (NHP)” value stood at 56.373 fold.
With KTEHVSGSPHSKAQNQQT, the “Fold Enrichment relative to AAV9, Brain (NHP)” value is given as 58.228 fold.
Still for that read-out and setting: for KTEQTSGSPHSKAQNQQT the value was 56.683 fold; for KSINGSGSPHSKTQSQQT, 58.608 fold.

The assay is the same for the next values; noted with them: NGS fold-enrichment, DRG of NHPs, relative to AAV9 control.
On to KESDGSGSPHSKAQNQQT, for which the “Fold Enrichment relative to AAV9, DRG (NHP)” value came to 0.000 fold.
On to KTINGSGSPHSKTKSQQT, for which the “Fold Enrichment relative to AAV9, DRG (NHP)” value worked out at 0.000 fold.
Take KTDLKSGSPHSKAQNQQT: the “Fold Enrichment relative to AAV9, DRG (NHP)” value worked out at 0.000 fold.
The same measure, in the same setting: the figure for KTEDRSGSPHSKAQNQQT is 0.000 fold; for KTINGSGSPHSKSQNVQT it is 0.000 fold.

Staying with this assay, now noted: NGS fold-enrichment, RNA, brain of NHPs, relative to AAV9 control.
Take KESDGSGSPHSKAQNQQT: the “Fold Enrichment relative to AAV9, Brain (NHP)” value is given as 63.766 fold.
Turning to KTINGSGSPHSKTKSQQT, the “Fold Enrichment relative to AAV9, Brain (NHP)” value amounted to 70.891 fold.
For KTDLKSGSPHSKAQNQQT, the “Fold Enrichment relative to AAV9, Brain (NHP)” value turned out to be 63.152 fold.
As for KTEDRSGSPHSKAQNQQT, the “Fold Enrichment relative to AAV9, Brain (NHP)” value amounted to 61.756 fold.
Still for that read-out and setting: the figure for KTINGSGSPHSKSQNVQT is 66.627 fold.

The assay is the same for the next values; noted with them: NGS fold-enrichment, heart of NHPs, relative to AAV9 control.
Consider KESDGSGSPHSKAQNQQT, for which the “Fold Enrichment relative to AAV9, Heart (NHP)” value was 0.000 fold.
For the sequence KTINGSGSPHSKTKSQQT, the “Fold Enrichment relative to AAV9, Heart (NHP)” value stood at 0.568 fold.
With KTDLKSGSPHSKAQNQQT, the “Fold Enrichment relative to AAV9, Heart (NHP)” value turned out to be 0.000 fold.
On the same count and under the same terms, the figure for KTEDRSGSPHSKAQNQQT is 0.000 fold.
The same measure, in the same setting: for KTINGSGSPHSKSQNVQT the value was 0.190 fold.

The assay is the same for the next values; noted with them: NGS fold-enrichment, liver DNA of NHPs, relative to AAV9 control.
Consider KESDGSGSPHSKAQNQQT, for which the “Fold Enrichment relative to AAV9, Liver DNA (NHP)” value is given as 0.146 fold.
The same measure, in the same setting: for KTINGSGSPHSKTKSQQT the value was 0.496 fold.
On to KTDLKSGSPHSKAQNQQT, for which the “Fold Enrichment relative to AAV9, Liver DNA (NHP)” value was found to be 0.377 fold.
On to KTEDRSGSPHSKAQNQQT, for which the “Fold Enrichment relative to AAV9, Liver DNA (NHP)” value is reported as 0.408 fold.
Consider KTINGSGSPHSKSQNVQT, for which the “Fold Enrichment relative to AAV9, Liver DNA (NHP)” value is recorded as 0.188 fold.

The same assay, now with this note: NGS fold-enrichment, liver RNA of NHPs, relative to AAV9 control.
Regarding KESDGSGSPHSKAQNQQT, the “Fold Enrichment relative to AAV9, Liver RNA (NHP)” value was 0.567 fold.
Still for that read-out and setting: for KTINGSGSPHSKTKSQQT the value was 0.418 fold.
Same read-out and setting: the figure for KTDLKSGSPHSKAQNQQT is 0.285 fold.
Same read-out and setting: for KTEDRSGSPHSKAQNQQT the value was 1.004 fold; for KTINGSGSPHSKSQNVQT, 0.202 fold.

The assay is the same for the next values; noted with them: NGS fold-enrichment, muscle of NHPs, relative to AAV9 control.
On to KESDGSGSPHSKAQNQQT, for which the “Fold Enrichment relative to AAV9, Muscle (NHP)” value was determined as 0.000 fold.
Still for that read-out and setting: the figure for KTINGSGSPHSKTKSQQT is 0.045 fold; for KTDLKSGSPHSKAQNQQT it is 0.012 fold; for KTEDRSGSPHSKAQNQQT it is 0.000 fold.
In the case of KTINGSGSPHSKSQNVQT, the “Fold Enrichment relative to AAV9, Muscle (NHP)” value stood at 0.000 fold.

Still in this assay, the particulars now being: NHP DRG; relative to AAV9 control.
For the sequence KTINGSGSPHSKAQSKVT, the “Fold Enrichment relative to AAV9, DRG (NHP)” value is given as 0.000 fold.
Still for that read-out and setting: for KTEHVSGSPHSKAQNQQT the value was 0.000 fold; for KTEQTSGSPHSKAQNQQT, 0.000 fold; for KSINGSGSPHSKTQSQQT, 0.000 fold.

The assay is the same for the next values; noted with them: NHP heart; relative to AAV9 control.
Consider KTINGSGSPHSKAQSKVT, for which the “Fold Enrichment relative to AAV9, Heart (NHP)” value is recorded as 0.050 fold.
Same read-out and setting: for KTEHVSGSPHSKAQNQQT the value was 0.024 fold; for KTEQTSGSPHSKAQNQQT, 0.045 fold; for KSINGSGSPHSKTQSQQT, 3.017 fold.

Still in this assay, the particulars now being: NHP liver, DNA; relative to AAV9 control.
For KTINGSGSPHSKAQSKVT, the “Fold Enrichment relative to AAV9, Liver DNA (NHP)” value turned out to be 0.390 fold.
Regarding KTEHVSGSPHSKAQNQQT, the “Fold Enrichment relative to AAV9, Liver DNA (NHP)” value was determined as 0.141 fold.
Regarding KTEQTSGSPHSKAQNQQT, the “Fold Enrichment relative to AAV9, Liver DNA (NHP)” value was found to be 0.430 fold.
For the sequence KSINGSGSPHSKTQSQQT, the “Fold Enrichment relative to AAV9, Liver DNA (NHP)” value is given as 0.017 fold.

Staying with this assay, now noted: NHP liver, RNA; relative to AAV9 control.
As to KTINGSGSPHSKAQSKVT, the “Fold Enrichment relative to AAV9, Liver RNA (NHP)” value was 1.021 fold.
Same read-out and setting: for KTEHVSGSPHSKAQNQQT the value was 0.433 fold; for KTEQTSGSPHSKAQNQQT, 0.792 fold; for KSINGSGSPHSKTQSQQT, 0.155 fold.

The same assay, now with this note: NHP muscle; relative to AAV9 control.
Take KTINGSGSPHSKAQSKVT: the “Fold Enrichment relative to AAV9, Muscle (NHP)” value stood at 0.014 fold.
Regarding KTEHVSGSPHSKAQNQQT, the “Fold Enrichment relative to AAV9, Muscle (NHP)” value stood at 0.000 fold.
With KTEQTSGSPHSKAQNQQT, the “Fold Enrichment relative to AAV9, Muscle (NHP)” value stood at 0.000 fold.
Same read-out and setting: for KSINGSGSPHSKTQSQQT the value was 0.000 fold.

The next assay deals with brain. The assay can be described thus: Matured TTM-001 and TTM-002 variants, NGS enrichment in mouse brain. Type of assay: in vivo, mice. Particulars: NGS fold-enrichment, brain of mice, relative to AAV9 control.
In the case of KESDGSGSPHSKAQNQQT, the “Fold Enrichment relative to AAV9, Brain (Mouse)” value is 115.231 fold.
The same measure, in the same setting: for KTINGSGSPHSKTKSQQT the value was 83.923 fold; for KTDLKSGSPHSKAQNQQT, 62.687 fold.
In the case of KTEDRSGSPHSKAQNQQT, the “Fold Enrichment relative to AAV9, Brain (Mouse)” value turned out to be 66.887 fold.
Take KTINGSGSPHSKSQNVQT: the “Fold Enrichment relative to AAV9, Brain (Mouse)” value was 56.672 fold.

Staying with this assay, now noted: mouse brain; relative to AAV9 control.
For the sequence KTINGSGSPHSKAQSKVT, the “Fold Enrichment relative to AAV9, Brain (Mouse)” value stood at 76.115 fold.
KTEHVSGSPHSKAQNQQT: the “Fold Enrichment relative to AAV9, Brain (Mouse)” value came to 71.410 fold.
For the sequence KTEQTSGSPHSKAQNQQT, the “Fold Enrichment relative to AAV9, Brain (Mouse)” value is recorded as 59.360 fold.
The same measure, in the same setting: the figure for KSINGSGSPHSKTQSQQT is 71.397 fold.
